Test results taken from publication PMC10452110, “Indole-3-Acetamido-Polyamines as Antimicrobial Agents and Antibiotic Adjuvants” (Biomolecules, 2023).

Key:
[1] = test system: Staphylococcus aureus (ATCC 25923); assay: Intrinsic antimicrobial activity (MIC) against S. aureus; format: cell-based; conditions: ATCC25923, S. aureus ATCC 25923, mean (n = 3), read-out: MIC S. a
Description: (§1) The susceptibility of bacterial strains Staphylococcus aureus (ATCC 25923), Escherichia coli (ATCC 25922) and Pseudomonas aeruginosa (ATCC 27853) to antibiotics and compounds was determined using previously reported protocols. Additional antimicrobial evaluation against MRSA (ATCC 43300), Klebsiella pneumoniae (ATCC 700603), Acinetobacter baumannii (ATCC 19606), Candida albicans (ATCC 90028) and Cryptococcus neoformans (ATCC 208821) was undertaken at the Community for Open Antimicrobial Drug Discovery at The University of Queensland (Australia) according to their standard protocols, as reported previously.

[2] = test system: MRSA (ATCC 43300); assay: Intrinsic antimicrobial activity (MIC) against MRSA; format: cell-based; conditions: Staphylococcus aureus, MRSA ATCC 43300; mean (n = 2); read-out: MIC MRSA
Description: as §1

[3] = test system: Pseudomonas aeruginosa (ATCC 27853); assay: Intrinsic antimicrobial activity (MIC) against P. aeruginosa; format: cell-based; conditions: ATCC27853, P. aeruginosa ATCC 27853, mean (n = 3), read-out: MIC P. a
Description: as §1

[4] = test system: Escherichia coli (ATCC 25922); assay: Intrinsic antimicrobial activity (MIC) against E. coli; format: cell-based; conditions: ATCC25922, E. coli ATCC 25922, mean (n = 3), read-out: MIC E. c
Description: as §1

[5] = test system: Klebsiella pneumoniae (ATCC 700603); assay: Intrinsic antimicrobial activity (MIC) against K. pneumoniae; format: cell-based; conditions: ATCC700603, K. pneumoniae ATCC 700603, mean (n = 2), read-out: MIC K. p
Description: as §1

[6] = test system: Acinetobacter baumannii (ATCC 19606); assay: Intrinsic antimicrobial activity (MIC) against A. baumannii; format: cell-based; conditions: ATCC19606, A. baumannii ATCC 19606, mean (n = 2), read-out: MIC A. b
Description: as §1

[7] = test system: Candida albicans (ATCC 90028); assay: Intrinsic antifungal activity (MIC) against C. albicans; format: cell-based; conditions: ATCC90028, C. albicans ATCC 90028, mean (n = 2), read-out: MIC C. a
Description: as §1

[8] = test system: Cryptococcus neoformans (ATCC 208821); assay: Intrinsic antifungal activity (MIC) against C. neoformans; format: cell-based; conditions: ATCC208821, C. neoformans ATCC 208821, mean (n = 2), read-out: MIC C. n
Description: as §1

[9] = Cytotoxicity assay; format: cell-based; conditions: human; HEK293 cells; mean (n = 2); read-out: Cytotoxicity: concentration of compound at 50% cytotoxicity (IC50)
Description: Cytotoxicity assays were conducted using the protocols previously reported.

[10] = test system: human red blood cells; assay: Hemolytic assay; format: cell-based; conditions: mean (n = 2)
Description: Hemolysis assays were conducted using the protocols previously reported.

[11] = test system: P. aeruginosa ATCC 27853; assay: Enhancement of doxycycline action against P. aeruginosa; format: cell-based, Pseudomonas aeruginosa; conditions: doxycycline at 4.5 µM
Description: (§2) Antibiotic enhancer concentrations were determined using previously reported protocols.

[12] = test system: E. coli ATCC 25922; assay: Enhancement of erythromycin action against E. coli; format: cell-based, Escherichia coli; conditions: erythromycin at 10.9 µM
Description: as §2

Compound	MIC [1]	MIC [2]	MIC [3]	MIC [4]	MIC [5]	MIC [6]	MIC [7]	MIC [8]	IC50 [9]	Hemolysis: concentration of compound at 10% hemolytic activity (HC10) [10]	Dox/P. a fold change (ratio between intrinsic MIC of the test compound and combination MIC) [11]	Dox/P. a: concentration required to restore doxycycline activity (combination MIC) [11]	Eryth/E. c: concentration required to restore erythromycin activity (combination MIC) [12]
O=C(Cc1c[nH]c2ccccc12)NCCCNCCCCCCCCCCCCNCCCNC(=O)Cc1c[nH]c2ccccc12.O=C(O)C(F)(F)F.O=C(O)C(F)(F)F [Compound 14f, N^1,N^12-Bis(3-(2-(1H-indol-3-yl)acetamido)propyl)dodecane-1,12-diaminium 2,2,2-trifluoroacetate]	3.65 µM	≤ 0.29 µM	58.3 µM	29.2 µM	> 37 µM	> 37 µM	≤ 0.29 µM	≤ 0.29 µM	> 37 µM	≤0.29 µM	4 fold	14.6 µM	14.6 µM
Cc1ccc2[nH]cc(CC(=O)NCCCNCCCCCCNCCCNC(=O)Cc3c[nH]c4ccc(C)cc34)c2c1.O=C(O)C(F)(F)F.O=C(O)C(F)(F)F [Compound 17b, N^1,N^6-Bis(3-(2-(5-methyl-1H-indol-3-yl)acetamido)propyl)hexane-1,6-diaminium 2,2,2-trifluoroacetate]	31.2 µM	≤ 0.31 µM	> 250 µM	250 µM	> 40 µM	> 40 µM	40 µM	≤ 0.31 µM	> 40 µM	23.1 µM	> 8 fold	31.2 µM	31.2 µM
Cc1cccc2c(CC(=O)NCCCNCCCCCCCNCCCNC(=O)Cc3c[nH]c4c(C)cccc34)c[nH]c12.O=C(O)C(F)(F)F.O=C(O)C(F)(F)F [Compound 20c, N^1,N^7-Bis(3-(2-(7-methyl-1H-indol-3-yl)acetamido)propyl)heptane-1,7-diaminium 2,2,2-trifluoroacetate]	3.83 µM	< 0.2 µM	> 245 µM	245 µM	> 39 µM	> 39 µM	> 39 µM	< 0.2 µM	> 39 µM	–	> 2 fold	123 µM	123 µM
Cc1ccc2[nH]cc(CC(=O)NCCCNCCCCCCCCNCCCNC(=O)Cc3c[nH]c4ccc(C)cc34)c2c1.O=C(O)C(F)(F)F.O=C(O)C(F)(F)F [Compound 17d, N^1,N^8-Bis(3-(2-(5-methyl-1H-indol-3-yl)acetamido)propyl)octane-1,8-diaminium 2,2,2-trifluoroacetate]	15.1 µM	≤ 0.3 µM	> 241 µM	241 µM	–	–	2.41 µM	≤ 0.3 µM	> 39 µM	0.42 µM	> 1 fold	241 µM	121 µM
COc1cccc2c(CC(=O)NCCCNCCCCNCCCNC(=O)Cc3c[nH]c4c(OC)cccc34)c[nH]c12.O=C(O)C(F)(F)F.O=C(O)C(F)(F)F [Compound 19a, N^1,N^4-Bis(3-(2-(7-methoxy-1H-indol-3-yl)acetamido)propyl)butane-1,4-diaminium 2,2,2-trifluoroacetate]	124 µM	19.9 µM	> 249 µM	> 249 µM	–	–	> 40 µM	19.9 µM	> 40 µM	>40 µM	1 fold	> 249 µM	> 249 µM
